Like-named read-outs stand apart in the source and are kept apart here.
Assays:
[1] = target: T1, beta-catenin/TCF4 engagement (Homo sapiens, UniProt P35222); assay: Nano-BRET target engagement assay (B-cat-Halo & TCF4-Luc in HEK293 cells); type: cell-based; details: read-out: NanoBRET Abs IC50
T1 construct: expressed in transfected cells; host or cells: HEK293
T1 sequence (P35222 1-781): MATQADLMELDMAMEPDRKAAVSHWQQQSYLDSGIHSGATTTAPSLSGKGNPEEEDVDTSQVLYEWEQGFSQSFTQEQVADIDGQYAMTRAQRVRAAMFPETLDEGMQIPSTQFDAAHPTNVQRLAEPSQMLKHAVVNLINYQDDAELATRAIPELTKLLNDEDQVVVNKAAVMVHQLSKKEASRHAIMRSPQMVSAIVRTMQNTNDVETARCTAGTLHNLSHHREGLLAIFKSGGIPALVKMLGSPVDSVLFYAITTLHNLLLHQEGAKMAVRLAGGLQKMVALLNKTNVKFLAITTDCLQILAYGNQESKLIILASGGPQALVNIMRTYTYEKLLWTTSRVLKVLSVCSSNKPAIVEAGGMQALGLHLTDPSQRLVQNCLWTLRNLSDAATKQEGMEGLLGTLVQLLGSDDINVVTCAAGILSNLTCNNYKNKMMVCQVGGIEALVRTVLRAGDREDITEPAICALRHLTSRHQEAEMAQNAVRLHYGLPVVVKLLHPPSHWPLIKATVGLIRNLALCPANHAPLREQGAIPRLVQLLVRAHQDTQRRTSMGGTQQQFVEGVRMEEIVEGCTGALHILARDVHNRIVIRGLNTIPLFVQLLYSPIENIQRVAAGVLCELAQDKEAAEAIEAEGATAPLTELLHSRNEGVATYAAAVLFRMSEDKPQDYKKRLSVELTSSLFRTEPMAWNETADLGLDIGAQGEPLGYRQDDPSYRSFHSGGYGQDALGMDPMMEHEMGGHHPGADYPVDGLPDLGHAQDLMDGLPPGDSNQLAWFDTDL

[2] = target: T2, full-length beta-Catenin (Uniprot ID P35222) (Homo sapiens, UniProt P35222); assay: Fluorescence polarization IC50 (beta-catenin / 5FAM-TCF4 10-53 competition); type: binding; details: fluorescence polarization; read-out: beta-Catenin FP IC50
T2 construct: 10 nM full-length beta-Catenin (Uniprot ID P35222)
T2 sequence (P35222 1-781): T1 sequence (P35222 1-781)

Row | SMILES | IC50 ([1]; absolute IC50) | IC50 [2] | IC50 [1]
1 | CC[C@@H]1NC(=O)[C@H](Cc2ccccc2)NC(=O)[C@H](C)NC(=O)C(C)(C)NC(=O)[C@H](Cc2cccc(C(=O)O)c2)NC(=O)[C@H](CC(=O)O)NC(=O)C2(CCCC=CCCCOC(=O)N3CC[C@@](C(=O)N[C@@H](Cc4ccsc4)C(=O)N[C@@H](Cc4csc5ccccc45)C(=O)N[C@@H](CCC(=O)N4CCC(N5CCCCC5)CC4)C(N)=O)(C3)NC1=O)CCCC=CC[C@]1(CCCN1C(C)=O)C(=O)N[C@@H](CC(=O)O)C(=O)N[C@@H](CC(C)(C)C)C(=O)N2 (stereo partly drawn) [I-2560, Ac-PL3-Asp-Npg-B5-Asp-3COOHF-Aib-Ala-Phe-Abu-PyrS2-3Thi-BztA-[4Pippip]GlnR-NH2] | 19300 nM | 9 nM | 
2 | CC[C@@H]1NC(=O)[C@H](Cc2ccccc2)NC(=O)[C@H](C)NC(=O)C(C)(C)NC(=O)[C@H](Cc2cccc(C(=O)O)c2)NC(=O)[C@H](CC(=O)O)NC(=O)C2(CCCC=CCCCOC(=O)N3CC[C@@](C(=O)N[C@@H](Cc4ccsc4)C(=O)N[C@@H](Cc4csc5ccccc45)C(=O)N[C@@H](CCC(=O)N4CCN(C(C)=O)CC4)C(N)=O)(C3)NC1=O)CCCC=CC[C@]1(CCCN1C(C)=O)C(=O)N[C@@H](CC(=O)O)C(=O)N[C@@H](CC(C)(C)C)C(=O)N2 (stereo partly drawn) [I-2561, Ac-PL3-Asp-Npg-B5-Asp-3COOHF-Aib-Ala-Phe-Abu-PyrS2-3Thi-BztA-[AcPpz]GlnR-NH2] | 7200 nM | 5 nM | 
3 | CC(=O)N[C@]1(C)CC=CCCCC2(CCCC=CCCCOC(=O)N3CC[C@@](C(=O)N[C@@H](Cc4ccccc4C(F)(F)F)C(=O)N[C@@H](Cc4csc5ccccc45)C(=O)N[C@@H](CCC(N)=O)C(N)=O)(C3)NC(=O)[C@H](CC(C)C)NC(=O)[C@H](Cc3ccccc3)NC(=O)[C@H](C)NC(=O)[C@H](C)NC(=O)[C@H](Cc3cccc(C(=O)O)c3)NC(=O)[C@H](CC(=O)O)NC2=O)NC(=O)[C@H](CC(C)(C)C)NC(=O)[C@H](CC(=O)O)NC1=O (stereo partly drawn) [I-2563, Ac-R3-Asp-Npg-B5-Asp-3COOHF-Ala-Ala-Phe-Leu-PyrS2-2F3MeF-BztA-Gln-NH2] | 17000 nM | 48 nM | 
4 | CC(=O)N[C@]1(C)CCCC=CCCCC2(CCCC=CCCCOC(=O)N3CC[C@@](C(=O)N[C@@H](Cc4ccccc4C(F)(F)F)C(=O)N[C@@H](Cc4csc5ccccc45)C(=O)N[C@@H](CCC(N)=O)C(N)=O)(C3)NC(=O)[C@H](CC(C)C)NC(=O)[C@H](Cc3ccccc3)NC(=O)[C@H](C)NC(=O)[C@H](C)NC(=O)[C@H](Cc3cccc(C(=O)O)c3)NC(=O)[C@H](CC(=O)O)NC2=O)NC(=O)[C@H](CC(C)(C)C)NC(=O)[C@H](CC(=O)O)NC1=O (stereo partly drawn) [I-2565, Ac-R5-Asp-Npg-B5-Asp-3COOHF-Ala-Ala-Phe-Leu-PyrS2-2F3MeF-BztA-Gln-NH2] |  | 90 nM | 21000 nM

Continued, values first:

Row | IC50 ([1]; absolute IC50) | IC50 [2] | IC50 [1] | SMILES
5 |  | 42 nM | 24000 nM | CC(=O)N[C@]1(C)CCCCCCCCC2(CCCCCCCCOC(=O)N3CC[C@@](C(=O)N[C@@H](Cc4ccccc4C(F)(F)F)C(=O)N[C@@H](Cc4csc5ccccc45)C(=O)N[C@@H](CCC(N)=O)C(N)=O)(C3)NC(=O)[C@H](CC(C)C)NC(=O)[C@H](Cc3ccccc3)NC(=O)[C@H](C)NC(=O)[C@H](C)NC(=O)[C@H](Cc3cccc(C(=O)O)c3)NC(=O)[C@H](CC(=O)O)NC2=O)NC(=O)[C@H](CC(C)(C)C)NC(=O)[C@H](CC(=O)O)NC1=O (stereo partly drawn) [I-2571, Ac-R5-Asp-Npg-B5-Asp-3COOHF-Ala-Ala-Phe-Leu-PyrS2-2F3MeF-BztA-Gln-NH2]
6 |  | 67 nM | > 20000 nM | CC(=O)N1CCC[C@H]1C(=O)N[C@]1(C)CCCCCCC2(CCCCCCCCOC(=O)N3CC[C@@](C(=O)N[C@@H](Cc4ccccc4C(F)(F)F)C(=O)N[C@@H](Cc4csc5ccccc45)C(=O)N[C@@H](CCC(N)=O)C(N)=O)(C3)NC(=O)[C@H](CC(C)C)NC(=O)[C@H](Cc3ccccc3)NC(=O)[C@H](C)NC(=O)[C@H](C)NC(=O)[C@H](Cc3cccc(C(=O)O)c3)NC(=O)[C@H](CC(=O)O)NC2=O)NC(=O)[C@H](CC(C)(C)C)NC(=O)[C@H](CC(=O)O)NC1=O (stereo partly drawn) [I-2572, Ac-Pro-R3-Asp-Npg-B5-Asp-3COOHF-Ala-Ala-Phe-Leu-PyrS2-2F3MeF-BztA-Gln-NH2]
